Read-outs that look alike come from different tables or passages of the source.
Tested on: C. elegans
Assay: microbe, parasite or virus in culture
Settings: Caenorhabditis elegans
[1] = 0 h, read-out: Percentage of motility inhibition 0 h
[2] = 24 h, read-out: Percentage of motility inhibition 24 h
[3] = 0 h, read-out: Percentage of motility inhibition 0 h, Table S2, C. elegans SS assay, 110 μM, 0 h, averages of 4 data points
[4] = 24 h, read-out: Percentage of motility inhibition 24 h, Table S2, C. elegans SS assay, 110 μM, 24 h, averages of 4 data points

Row | SMILES | inhibition at 110 µM [1] | inhibition at 110 µM [2] | inhibition at 110 µM [3] | inhibition at 110 µM [4]
1 | C[C@H](C[C@H](O)[C@H]1OC1(C)C)C1=C2C[C@H](O)[C@H]3[C@@]4(C)CCC(=O)C(C)(C)[C@@H]4CC[C@]3(C)[C@@]2(C)CC1 [Alisol B] | 3% | 10% | – | –
2 | OC[C@H]1O[C@@H](O[C@@H]2OC=C[C@H]3[C@H](O)[C@@H]4O[C@]4(CO)[C@@H]23)[C@H](O)[C@@H](O)[C@@H]1O [Catalpol] | – | – | 0% | 16%
3 | O=c1c(O)c(-c2ccc(O)c(O)c2)oc2cc(O)ccc12 [Fisetin] | – | – | 0% | 2%
4 | C[C@@H](c1nc(-c2ccc(C#N)cc2)cs1)[C@](O)(Cn1cncn1)c1cc(F)ccc1F [Isavuconazole] | – | – | 25% | 0%
5 | O=C1C=CC(=O)N1 [Maleimide] | – | – | 25% | 32%
6 | CO[C@H]1/C=C/O[C@@]2(C)Oc3c(C)c(O)c4c(c3C2=O)C2=NC3(CCN(CC(C)C)CC3)NC2=C(NC(=O)/C(C)=C\C=C\[C@H](C)[C@H](O)[C@@H](C)[C@@H](O)[C@@H](C)[C@H](OC(C)=O)[C@@H]1C)C4=O [Rifabuti n] | – | – | 41% | 2%
7 | C[C@@]12C[C@@]3(O)O[C@@H](O1)[C@]1(COC(=O)c4ccc(O)cc4)[C@@H]3C[C@]12O[C@@H]1O[C@H](COC(=O)c2ccccc2)[C@@H](O)[C@H](O)[C@H]1O [Mudanpioside C] | – | – | 23% | 41%
8 | CC1(C)[C@@H](O[C@H]2O[C@H](C(=O)O)[C@@H](O)[C@H](O)[C@H]2O[C@@H]2O[C@H](C(=O)O)[C@@H](O)[C@H](O)[C@H]2O)CC[C@]2(C)[C@H]3C(=O)C=C4[C@@H]5C[C@@](C)(C(=O)O)CC[C@]5(C)CC[C@@]4(C)[C@]3(C)CC[C@@H]12 [Glycyrrhizic acid] | – | – | 0% | 0%
9 | CC(C)[C@]12CC(=O)[C@H](C)[C@H]1C2 [α-Thujone] | – | – | 9% | 20%
10 | CC(C)C1=C[C@H]2[C@@H](CC[C@]2(C)O)[C@](C)(O)CC1 [Alismoxide] | – | – | 2% | 0%
11 | CN/C(=N/CC1CCOC1)N[N+](=O)[O-] (stereo not shown) [Dinotefuran] | 7% | 0% | – | –
12 | CC(C)c1nc(CN(C)C(=O)N[C@H](C(=O)N[C@@H](Cc2ccccc2)C[C@H](O)[C@H](Cc2ccccc2)NC(=O)OCc2cncs2)C(C)C)cs1 [Ritonavir] | – | – | 2% | 0%
13 | C=C(C)[C@H](CC=C(C)C)Cc1c(O)cc(O)c2c1O[C@H](c1ccc(O)cc1O)CC2=O [Sophoraflavanone G] | 55% | 4% | – | –
14 | CN(C)c1cc(NC(=O)CNC(C)(C)C)c(O)c2c1C[C@H]1C[C@H]3[C@H](N(C)C)C(O)=C(C(N)=O)C(=O)[C@@]3(O)C(O)=C1C2=O [Tigecycline] | – | – | 31% | 19%
15 | CC(C)(C)CC(C)(C)c1ccc(O)c(Cc2ccc(Cl)cc2Cl)c1 [Clofoctol] | – | – | 37% | 44%
16 | Cc1noc(NS(=O)(=O)c2ccc(N)cc2)c1C [Sulfisoxazole] | – | – | 9% | 7%
17 | CN(C)Cc1c[nH]c2ccccc12 [Gramine] | – | – | 0% | 0%
18 | Nc1nc(=O)c2nc(CNc3ccc(C(=O)N[C@@H](CCC(=O)O)C(=O)O)cc3)cnc2[nH]1 [Folic acid] | – | – | 23% | 17%
19 | Nc1ccn([C@@H]2O[C@H](CO)[C@@H](O)[C@H]2O)c(=O)n1 [Cytidine] | – | – | 12% | 5%
20 | CCc1cc(C(N)=S)ccn1 [Ethionamide] | – | – | 64% | 12%
21 | O=[N+]([O-])C(Br)(CO)CO [Bronopol] | – | – | 19% | 24%
22 | O=c1ccn([C@@H]2O[C@H](CO)[C@@H](O)[C@H]2O)c(=O)[nH]1 [Uridine] | – | – | 0% | 10%
23 | Cc1cn([C@H]2C[C@H](N=[N+]=[N-])[C@@H](CO)O2)c(=O)[nH]c1=O [Zidovudine] | – | – | 7% | 4%
24 | C[C@H]1O[C@@H](O[C@H]2CC[C@@]3(C)[C@@H](CC[C@]4(C)[C@@H]3C=C[C@]35OC[C@@]6(CCC(C)(C)C[C@H]63)[C@@H](O)C[C@]54C)[C@]2(C)CO)[C@H](O)[C@@H](O[C@@H]2O[C@H](CO)[C@@H](O)[C@H](O)[C@H]2O)[C@H]1O [Saikosaponin A] | – | – | 2% | 4%
25 | C=C(NC(=O)C(=C)NC(=O)c1csc(C2=N[C@@H]3c4csc(n4)[C@H]4NC(=O)c5csc(n5)[C@H]([C@](C)(O)[C@@H](C)O)NC(=O)[C@H]5CSC(=N5)/C(=C/C)NC(=O)[C@H]([C@@H](C)O)NC(=O)c5csc(n5)[C@]3(CC2)NC(=O)[C@H](C)NC(=O)C(=C)NC(=O)[C@H](C)NC(=O)[C@H]([C@@H](C)CC)N[C@@H]2C=Cc3c([C@H](C)O)cc(nc3[C@H]2O)C(=O)O[C@@H]4C)n1)C(N)=O [Thiostrepton] | – | – | 11% | 31%

Row | SMILES | inhibition at 110 µM [1] | inhibition at 110 µM [2] | inhibition at 110 µM [3] | inhibition at 110 µM [4]
26 | O=c1c(O[C@@H]2OC[C@@H](O)[C@H](O)[C@H]2O)c(-c2ccc(O)c(O)c2)oc2cc(O)cc(O)c12 [Reynoutrin] | – | – | 0% | 7%
27 | C[C@@H](O)[C@H]1C(=O)N2C(C(=O)[O-])=C(SC3Cn4cnc[n+]4C3)[C@H](C)[C@H]12 (stereo partly shown) [Biapenem] | – | – | 18% | 3%
28 | COc1ccccc1O [Guaiacol] | – | – | 6% | 10%
29 | O=c1cc(-c2ccccc2)oc2c(O)c(O)cc(O)c12 [Norwogonin] | – | – | 0% | 12%
30 | COC(=O)Nc1nc2ccc([S+]([O-])c3ccccc3)cc2[nH]1 (stereo not shown) [Oxfendazole] | – | – | 12% | 5%
31 | Cc1c(C)[n+](Cc2ccccc2)cn1Cc1ccccc1 [Lepidiline A] | – | – | 5% | 14%
32 | COc1ccc(-c2cc(=O)c3c(OC)c(OC)c(OC)c(OC)c3o2)cc1OC [Nobiletin] | – | – | 0% | 0%
33 | COc1cc(O)c2c(=O)c(OC)c(-c3ccc(OC)c(O)c3)oc2c1 [Ayanin] | 0% | 22% | – | –
34 | C/C=C(\C)C(=O)O[C@H]1C[C@@H](OC(C)=O)[C@@]2(C(=O)OC)CO[C@H]3[C@@H](O)[C@@](C)([C@]45O[C@@]4(C)[C@H]4C[C@@H]5O[C@@H]5OC=C[C@@]54O)[C@H]4[C@]1(CO[C@]4(O)C(=O)OC)[C@@H]32 [Azadirachtin] | – | – | 24% | 4%
35 | CC(C)=C[C@H]1C[C@](C)(O)[C@@H]2[C@H]3CC[C@@H]4[C@@]5(C)CC[C@H](O[C@@H]6O[C@H](CO)[C@@H](O)[C@H](O[C@@H]7O[C@H](CO)[C@@H](O)[C@H](O)[C@H]7O)[C@H]6O[C@@H]6O[C@@H](CO)[C@H](O)[C@H]6O)C(C)(C)[C@@H]5CC[C@@]4(C)[C@@]34CO[C@@]2(C4)O1 [Bacoside A3] | – | – | 3% | 0%
36 | Nc1ccn([C@@H]2CS[C@H](CO)O2)c(=O)n1 [Lamivudine] | – | – | 23% | 5%
37 | COc1cc(-c2cc(=O)c3c(O)cc(O)cc3o2)ccc1O [Chrysoeriol] | – | – | 18% | 1%
38 | Cc1ncc([N+](=O)[O-])n1C [Dimetridazole] | – | – | 0% | 14%
39 | CN1CCc2cc3c(c4c2C1Cc1ccccc1-4)OCO3 (stereo not shown) [Roemerine] | – | – | 0% | 0%
40 | CNC(=O)c1cccnc1 [N‐Methylnicotinamide] | – | – | 3% | 0%
41 | Cc1cc2nc3c(=O)[nH]c(=O)nc-3n(C[C@H](O)[C@H](O)[C@H](O)CO)c2cc1C [Riboflavin] | – | – | 3% | 6%
42 | C=C(C)[C@@H]1CC[C@]2(C(=O)O)CC[C@]3(C)[C@H](CC[C@@H]4[C@@]5(C)CC[C@H](OC(=O)CC(C)(C)C(=O)O)C(C)(C)[C@@H]5CC[C@]43C)[C@@H]12 [Bevirimat] | – | – | 3% | 30%
43 | CC[C@@H](C(=O)[C@@H](C)[C@@H](O)[C@H](C)CCc1ccc(C)c(O)c1C(=O)O)[C@H]1O[C@](CC)([C@H]2CC[C@](O)(CC)[C@H](C)O2)C[C@@H]1C [Lasalocid] | – | – | 23% | 21%
44 | C[C@H]1COC2(CCN(c3nc(=O)c4cc(C(F)(F)F)cc([N+](=O)[O-])c4s3)CC2)O1 [BTZ043] | – | – | 0% | 5%
45 | OC[C@H]1O[C@@H](Oc2ccc(O)cc2)[C@H](O)[C@@H](O)[C@@H]1O [Arbutin] | – | – | 0% | 1%
46 | CC[C@H](C)[C@H](N)C(=O)O [L-Isoleucine] | – | – | 14% | 17%
47 | CC(C)=CCC[C@](C)(O[C@@H]1O[C@H](CO[C@@H]2OC[C@H](O)[C@H](O)[C@H]2O)[C@@H](O)[C@H](O)[C@H]1O)[C@H]1CC[C@]2(C)[C@@H]1[C@H](O)C[C@@H]1[C@@]3(C)CC[C@H](O[C@@H]4O[C@H](CO)[C@@H](O)[C@H](O)[C@H]4O[C@@H]4O[C@H](CO)[C@@H](O)[C@H](O)[C@H]4O)C(C)(C)[C@@H]3CC[C@]12C [Ginsenoside Rb2] | – | – | 7% | 0%
48 | CC1(C)CC[C@]2(CO)CC[C@]3(C)C(=CC[C@@H]4[C@@]5(C)CC[C@H](O)C(C)(C)[C@@H]5CC[C@]43C)[C@@H]2C1 [Erythrodiol] | – | – | 11% | 68%
49 | Cc1nc(C(F)(F)F)c(C(=O)Nc2c(Br)cc(OC(F)(F)F)cc2Br)s1 [Thifluzamide] | – | – | 69% | 29%
50 | O=C(CBr)N1CC([N+](=O)[O-])([N+](=O)[O-])C1 [RRx‐001] | – | – | 19% | 6%

Source: publication PMC11855827, “High-Throughput Screening of Five Compound Libraries for Anthelmintic Activity and Toxicity Leads to the Discovery of Two Flavonoid Compounds” (International Journal of Molecular Sciences, 2025)
